This note sets out measurements from patent publication US9133449B2, “Mutant pyrrolysyl-tRNA synthetase, and method for production of protein having non-natural amino acid integrated therein by using the same” (priority 2007, dated 2015).

Assay [1] addresses M. mazei PylRS (wild-type) (Methanosarcina mazei, UniProt Q8PWY1). The assay is classed as biochemical. The conditions noted are these: 37 degrees Celsius 1 h; 0.5 M Lys; 100 mM Ac-Lys; 1 mM Boc-Lys; 1 mM Aloc-Lys; 10 mM Nic-Lys; 7 mM Nma-Lys; 3.5 mM Z-Lys; 1 mM pyrrolysine.
The test system of assay [2] is GST gene with amber codon (TAG) at the 25th from N terminus, E. coli BL21 (DE3). The assay is classed as cell-based. The conditions noted are these: for expression of 28-kDa GST protein: mutant PylRS (Y384F) and tRNA^Pyl, 4 mM amino acid; for incorporation into a protein with wild-type PylRS: E. coli cells. From the text: In order to confirm whether amber suppression (amber mutation suppression) occurs in E. coli cells, the glutathione S-transferase (GST) gene whose tyrosine codon at the 25th from N terminus was mutated to the amber codon (TAG) was cloned into a pET system plasmid. On the other hand, the wild-type and a variety of mutant PylRS genes, as well as tRNA^Pyl genes were cloned into a pACYX system plasmid (see FIG. 6). These two expression vectors were transformed to E. coli BL21 (DE3) to statically culture overnight on LB agar medium including kanamycin and ampicillin. […] Incubation was conducted overnight to induce expression before E. coli cells were harvested to detect expressed GST using SDS-PAGE. […] (SEQ ID NO: 17) (m/z=1327.72 Da) (see FIG. 10).
The same plasmid pTK2-1 as Example 1 was used for expressing PylRS mutant with double amino acid substitutions of Y306A and Y384F and tRNA^Pyl in E. coli cells. Incorporation of a lysine derivative into GST having amber codon at 25th from its N-terminus using this plasmid was performed according to the same method as Example 1. Moreover, specific incorporation of AzZLys [purchased from Shinsei Chemical Company Ltd. (Osaka)] into the amber site in GST using the same plasmid was also performed according to the same method as Example 1. Subsequently, crude extract obtained from E. coli cells in which the GST amber gene was expressed was separated with SDS-PAGE and stained. […] Furthermore, purification of GST was performed with the same method as Example 1.

For assay [3], the system named is GRB2 amber gene, HEK c-18 cell. From the text:
(§1) For expressing PylRS (Y306A, Y384F) mutant and tRNA^P1 in HEK c-18 cell, the system disclosed in the above-mentioned Non-Patent Document 7 was used. Likewise, the mutant gene into which the amber codon was incorporated at the cording region of lac Z gene and GRB2 gene, and the expression system thereof, as disclosed in the above-mentioned Non-Patent Document 7, were used.

Assay [4] has as its system lacZ amber gene, HEK c-18 cell.
Text: as §1
First, in the animal cells, optimal concentration of AzLys for site-specific incorporation of AzLys into the protein was determined. In media containing 0, 0.01, 0.025, 0.05, 0.1, 0.25 and 0.5 mM of AzZLys, LacZ protein was expressed from the lacZ amber gene to determine the level of expression (relative value) of LacZ with coloring reaction by LacZ. […] In FIG. 17, WT represents the level of expression (relative value) of wild-type (WT) lacZ without any amber codon in the coding region.

Another assay deals with GST. As to conditions: FITC-PP3; ca. 37 degrees Celsius for 1 hour (not at ca. 4 degrees Celsius overnight). The procedure:
A conjugate of fluorophore and triarylphosphine, and the purified full length GST were linked by Staudinger-Bertozzi reaction. As a conjugate, the conjugate with FITC (hereinafter referred to as FITC-PP3) (purchased from Shinsei Chemical Company Ltd.) was used. […] Linkage reaction was performed under two types of reactive conditions, i.e., at ca. 37 degrees Celsius for 1 hour (lhr) and at ca. 4 degrees Celsius overnight (O/N). Subsequently, these GST were separated by SDS-PAGE to detect fluorescence with UV light. […] As to the Staudinger-Bertozzi reaction, see the above-mentioned Non-Patent Documents 5, 6, etc.

Structures are written as SMILES. Entries after “also recorded” stand apart in the source; their conditions may differ.

Chain of M. mazei PylRS (wild-type) (Q8PWY1 whole entry E444G, looked up): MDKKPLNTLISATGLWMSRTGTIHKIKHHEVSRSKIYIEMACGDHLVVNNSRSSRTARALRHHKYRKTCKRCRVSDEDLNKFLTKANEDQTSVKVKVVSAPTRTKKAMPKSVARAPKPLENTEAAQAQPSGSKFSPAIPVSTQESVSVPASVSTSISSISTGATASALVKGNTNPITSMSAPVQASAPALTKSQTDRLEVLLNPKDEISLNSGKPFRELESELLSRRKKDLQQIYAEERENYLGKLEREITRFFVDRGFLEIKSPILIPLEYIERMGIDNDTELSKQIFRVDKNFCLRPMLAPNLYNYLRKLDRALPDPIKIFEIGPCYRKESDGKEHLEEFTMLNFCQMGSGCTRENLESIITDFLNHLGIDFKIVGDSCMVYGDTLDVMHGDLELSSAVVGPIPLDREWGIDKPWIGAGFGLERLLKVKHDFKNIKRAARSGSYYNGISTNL

Consider `CC(=O)NCCCC[C@H](N)C(=O)O` [Ac-Lys, N^ε-acetyl-L-lysine], for which the “activation of amino acid / esterification of tRNA^Pyl by wild-type PylRS” value in assay [1] is “esterified”.

Consider `C=CCOC(=O)N[C@@H](CCCCN)C(=O)O` [Aloc-Lys, allyloxycarbonyl-lysine], for which the “activation of amino acid / esterification of tRNA^Pyl by wild-type PylRS” value in assay [1] is “activated at a concentration of 1 mM, as efficiently as pyrrolysine”. Also, the “expression of 28-kDa GST protein” value in assay [2] was “expressed”.

For `[N-]=[N+]=Nc1ccc(C[C@H](N)C(=O)O)cc1` [AzF, para-azide-phenylalanine], the “Grb2 modified with fluorescence” value in assay [3] (AzFRS system, AzFRS also modified with fluorescence concurrently) is “modified with fluorescence”.

Consider `[N-]=[N+]=Nc1ccccc1COC(=O)NCCCC[C@H](N)C(=O)O` [AzZLys, N^ε-Ortho-Azide-Benzyloxycarbonyl-Lysine], for which the “suppression efficiency (LacZ expression relative to wild-type lacZ)” value in assay [4] (PylRS (Y306A, Y384F) and tRNA^Pyl, 0.05 mM AzZLys) was “approximately 30 % of WT”. Besides, the “concentration at which most efficiently incorporated into the amber site of lacZ” value in assay [4] (tested 0, 0.01, 0.025, 0.05, 0.1, 0.25 and 0.5 mM) is 0.05 mM. For the same molecule, the “Grb2 protein labeled with fluorescence” value in assay [3] (PylRS (Y306A, Y384F), tRNA^Pyl, FITC-PP3) is “detected merely in the case of aaRS (+), Grb2 (Am), tRNA (+) and a.a. (+)”. For the same molecule, the “fluorescence-modified GST” value with GST is listed as “detected merely in the case of the reactive condition at ca. 37 degrees Celsius for 1 hour”. In addition, the “expression of the full length GST” value in assay [2] (PylRS mutant Y306A and Y384F and tRNA^Pyl, 1 mM AzZLys) is “detected merely in the case of the presence of 1 mM AzZLys”.

Consider `CC(C)(C)OC(=O)N[C@@H](CCCCN)C(=O)O` [Boc-Lys, tert-butyloxycarbonyl-lysine], for which, in assay [1], the “activation of amino acid / esterification of tRNA^Pyl by wild-type PylRS” value is recorded as “activated at a concentration of 1 mM, as efficiently as pyrrolysine”. Also, in assay [2], the “expression of 28-kDa GST protein” value is recorded as “expressed” and the “incorporation into a protein with wild-type PylRS” value was “could not efficiently be incorporated”.

For the molecule `CNc1ccccc1C(=O)NCCCC[C@H](N)C(=O)O` [Nma-Lys, N^ε-(N-methyl-anthraniloyl)-L-lysine], the “activation of amino acid / esterification of tRNA^Pyl by wild-type PylRS” value in assay [1] is recorded as “esterified”.

As to `N[C@@H](CCCCNC(=O)OCc1ccccc1)C(=O)O` [Z-Lys, N^ε-benzyloxycarbonyl-L-lysine], the “activation of amino acid / esterification of tRNA^Pyl by wild-type PylRS” value in assay [1] is “merely weakly activated; also recorded: esterified”. The “production of full length GST protein” value in assay [2] (double mutant PylRS (Y384F/Y306A) and tRNA^Pyl, 5 mM Z-Lys) is recorded as “produced”. In addition, in assay [2], the “incorporation into a protein with wild-type PylRS” value is listed as “cannot be incorporated into a protein”.

As to `C[C@@H]1CC=N[C@H]1C(=O)NCCCC[C@H](N)C(=O)O` [pyrrolysine, N^6-[(2R,3R)-3-methyl-3,4-dihydro-2H-pyrrole-2-ylcarbonyl]-L-lysine], the “activation of amino acid / esterification of tRNA^Pyl by wild-type PylRS” value in assay [1] was “activates”.
